From US20130252951A1, “7-HYDROXY-PYRAZOLO[1,5-A] PYRIMIDINE COMPOUNDS AND THEIR USE AS CCR2 RECEPTOR ANTAGONISTS” (Proximagen Limited, priority 2010, published 2013)

What follows are compounds tested against human CCR2 (Homo sapiens, UniProt P41597) (assay: CCR2 functional calcium assay (FLIPR calcium flux, hMCP-1 challenge)). Settings: HEK293 EBNA cells transfected with human CCR2, hMCP-1 challenge; read-out: Functional CCR2 fKi.
Assay type: cell-based
Set-up: expressed in transfected cells; host or cells: HEK293 EBNA cells
Text: The CCR2 receptor couples through the Gi/Gq signaling pathway and results in activation of calcium mobilization. The functional activity of test compounds was routinely tested by measuring the ability of compounds to antagonize CCR2 activity in a dose dependent manner, in HEK293 EBNA cells transfected with the human CCR2 receptor (hMCP-1 challenge), using a calcium flux Fluorescent Imaging Plate Reader FLIPR assay. Non-transfected HEK293 EBNA cells were used as control of non-specific response.
Briefly, test compounds were dissolved in dimethyl sulfoxide (DMSO) to a concentration of 10 mM and stored in matrix screenmate racks. The required amount of compound was transferred to 96-well compound plates on the day of assay and diluted in assay buffer to the required final concentration; dose-response measurements were assayed by making 1:3 serial dilutions to produce 10 point curves. The compounds were then transferred to 384-well assay plates ready for use. Top concentrations were adjusted depending on the potency of the compounds with a typical concentration range of 30 μM to 0.5 nM being used. The assay buffer used was HBSS buffer supplemented with 20 mM HEPES and 0.1% BSA, pH7.4. The loading/wash buffers were the same as the assay buffer.
Cells were suspended in culture medium at a density of 10000 cells/50 μl (the cell culture media composition was DMEM high glucose supplemented with 10% dialyzed FBS, 250 μg/ml Geneticin, and 400 μg/ml Hygromycin B), transferred to 384-well black/clear Costar plates (Costar #3712) (50 μl/well) and incubated at 37° C., in a 5% CO2/95% air humidified incubator for 16 h. The cells were washed with assay buffer at 37° C. using the Biotek ELx 405, washing 3 times, leaving 20 μl buffer in the well. 20 μl Fluo-4 (Fluo-4 stock solution (1 mM) was prepared by dissolving one vial of Fluo-4 (50 μg) in 45 μl of pluronic acid (240 mg/ml in DMSO). This stock solution of Fluo-4 was then diluted 250 times with loading buffer to give a Fluo-4 concentration of 4 μM. The dye solution (used within 2 h and kept away from light) was added to each well using a repeating multichannel pipette; the cells were then incubated at 37° C. for 60 min. Following the incubation, cells were washed in assay buffer at 37° C. using the Biotek ELx 405, washing 3 times, leaving 40 μl in each well and incubated for 10 min at 37° C. before use. A combined agonist/antagonist protocol was used. Compound (antagonist) was added to the cell plate using the FLIPR. Basal fluorescence was recorded every second for 10 seconds prior to compound addition (10 μl) and fluorescence recorded every second for 1 minute then every 6 seconds for a further 1 minute. Agonist (MCP-1) was then added using the FLIPR and fluorescence recorded as described above.
The positive control (agonist) was human recombinant MCP-1 which was stored as a stock concentration of 10 μM in distilled water and stored at −20° C. (maximal response: 30 nM; EC50 dose: 3-5 nM). The reference compound (antagonist) was RS102895 which was used as a 10 mM DMSO solution and stored at −20° C.
FLIPR responses were measured as peak minus basal fluorescence intensity and were expressed as a percentage of EC50 MCP-1 challenge. Curve-fitting and parameter estimation were carried out using GraphPad Prism 4.0 (GraphPad Software Inc., San Diego, Calif.).

Sequence of human CCR2 (P41597 whole entry): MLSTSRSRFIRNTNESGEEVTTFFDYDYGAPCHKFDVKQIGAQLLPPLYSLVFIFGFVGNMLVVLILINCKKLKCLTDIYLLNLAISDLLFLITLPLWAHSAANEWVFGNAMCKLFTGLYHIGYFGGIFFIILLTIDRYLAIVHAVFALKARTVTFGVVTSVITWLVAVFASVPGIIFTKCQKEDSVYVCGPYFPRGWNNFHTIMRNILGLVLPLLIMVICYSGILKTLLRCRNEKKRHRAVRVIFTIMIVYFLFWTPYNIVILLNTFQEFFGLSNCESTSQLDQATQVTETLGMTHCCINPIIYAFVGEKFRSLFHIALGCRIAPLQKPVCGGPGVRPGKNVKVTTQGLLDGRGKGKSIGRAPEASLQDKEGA

Compared with COC(=O)c1nc2ccnn2c(O)c1Cc1ccc(Cl)cc1 [Example 6, Methyl 6-[(4-chlorophenyl)methyl]-7-hydroxypyrazolo[1,5-a]pyrimidine-5-carboxylate], OCc1nc2ccnn2c(O)c1Cc1ccc(Cl)cc1 [Example 90, 6-[(4-Chlorophenyl)methyl]-5-(hydroxymethyl)pyrazolo[1,5-a]pyrimidin-7-ol] is higher in Ki: 0.01 to 0.1 µM for the first, 0.1 to 1 µM for the second. The first binds more tightly here.

Compared with COC(=O)c1nc2ccnn2c(O)c1Cc1cccc(F)c1 [Example 69, Methyl 6-[(3-fluorophenyl)methyl]-7-hydroxypyrazolo[1,5-a]pyrimidine-5-carboxylate], CC(O)c1nc2ccnn2c(O)c1Cc1cccc(F)c1 (centres unmarked) [Example 95, 6-[(3-Fluorophenyl)methyl]-5-(1-hydroxyethyl)pyrazolo[1,5-a]pyrimidin-7-ol] is higher in Ki: 0.01 to 0.1 µM for the first, 0.1 to 1 µM for the second. The first binds more tightly here.

Compared with Oc1c(Cc2ccc(Cl)cc2)c(CN2CCOCC2)nc2ccnn12 [Example 91, 6-[(4-Chlorophenyl)methyl]-5-(morpholin-4-ylmethyl)pyrazolo[1,5-a]pyrimidin-7-ol], COCc1nc2ccnn2c(O)c1Cc1ccc(Cl)cc1 [Example 51, 6-[(4-Chlorophenyl)methyl]-5-(methoxy-methyl)pyrazolo[1,5-a]pyrimidin-7-ol] is lower in Ki: 0.1 to 1 µM for the first, 0.01 to 0.1 µM for the second. The second binds more tightly here.

First: CC(C)c1nc2ccnn2c(O)c1Oc1ccc(Cl)c(Cl)c1 [Example 68, 6-(3,4-diChlorophenoxy)-5-(propan-2-yl)-pyrazolo[1,5-a]pyrimidin-7-ol]
Second: Cc1nc2ccnn2c(O)c1Oc1ccc(Cl)c(Cl)c1 [Example 60, 6-(3,4-Dichlorophenoxy)-5-methyl-pyrazolo[1,5-a]pyrimidin-7-ol]
The Ki of the first is lower: less than 0.01 µM for the first, 0.01 to 0.1 µM for the second.

Cc1nc2c(C(=O)N(C)CCC#N)cnn2c(O)c1Cc1ccc(Cl)cc1 [Example 109, 6-[(4-Chlorophenyl)methyl]-N-(2-cyanoethyl)-7-hydroxy-N,5-dimethylpyrazolo[1,5-a] pyrimidine-3-carboxamide] and Cc1nc2c(C)cnn2c(O)c1Cc1ccc(Cl)cc1 [Example 57, 6-[(4-Chlorophenyl)methyl]-3,5-dimethyl-pyrazolo[1,5-a]pyrimidin-7-ol] fall in the same range of Ki: 0.1 to 1 µM for the first, 0.1 to 1 µM for the second.

Cc1nc2c(C(=O)NCCc3ccccc3)cnn2c(O)c1Cc1ccc(Cl)cc1 [Example 105, 6-[(4-Chlorophenyl)methyl]-7-hydroxy-5-methyl-N-(2-phenylethyl)pyrazolo[1,5-a]pyrimidine-3-carboxamide] and Cc1nc2c(C(=O)NC[C@@H]3CCCO3)cnn2c(O)c1Cc1ccc(Cl)cc1 (stereo in doubt) [Example 110, 6-[(4-Chlorophenyl)methyl]-7-hydroxy-5-methyl-N-(oxolan-2-ylmethyl)pyrazolo-[1,5-a] pyrimidine-3-carboxamide] fall in the same range of Ki: 0.1 to 1 µM for the first, 0.1 to 1 µM for the second.

Oc1c(Cc2ccc(F)c(C(F)(F)F)c2)c(C2CCC2)nc2ccnn12 [Example 47, 5-Cyclobutyl-6-{[4-fluoro-3-(trifluoro-methyl)phenyl]methyl}pyrazolo[1,5-a]-pyrimidin-7-ol] and Oc1c(Cc2ccc(C(F)(F)F)c(F)c2)c(C2CC2)nc2ccnn12 [Example 32, 5-Cyclopropyl-6-{[3-fluoro-4-(trifluoromethyl)phenyl]methyl}pyrazolo[1,5-a]pyrimidin-7-ol] cannot be ordered by Ki: less than 0.01 µM for the first, less than 0.01 µM for the second.

First: CCc1nc2ccnn2c(O)c1Cc1cc(F)cc(C(F)(F)F)c1 [Example 4, 5-Ethyl-6-{[3-fluoro-5-(trifluoromethyl)phenyl]methyl}pyrazolo[1,5-a]pyrimidin-7-ol]
Second: CCc1nc2ccnn2c(O)c1Oc1cccc(C(F)(F)F)c1 [Example 61, 5-Ethyl-6-[3-(trifluoromethyl)phenoxy] pyrazolo[1,5-a]pyrimidin-7-ol]
The Ki of the first is lower: less than 0.01 µM for the first, 0.1 to 1 µM for the second. The first binds more tightly here.

Oc1c(Cc2cccc(Cl)c2)c(C2CCC2)nc2ccnn12 [Example 43, 6-[(3-Chlorophenyl)methyl]-5-cyclobutyl-pyrazolo[1,5-a]pyrimidin-7-ol] and Oc1c(Cc2ccc(F)c(Cl)c2)c(C2CCC2)nc2ccnn12 [Example 46, 6-[(3-Chloro-4-fluorophenyl)methyl]-5-cyclobutylpyrazolo[1,5-a]pyrimidin-7-ol] cannot be ordered by Ki: less than 0.01 µM for the first, less than 0.01 µM for the second.

COCCNC(=O)c1cnn2c(O)c(Cc3ccc(Cl)cc3)c(COC)nc12 [Example 118, 6-[(4-Chlorophenyl)methyl]-7-hydroxy-N-(2-methoxy-ethyl)5-(methoxymethyl)-pyrazolo[1,5-a]pyrimidine-3-carboxamide] and COCCNC(=O)c1cnn2c(O)c(Cc3ccc(C)cc3)c(C)nc12 [Example 102, 7-Hydroxy-N-(2-methoxyethyl)-5-methyl-6-[(4-methylphenyl)methyl]pyrazolo[1,5-a]pyrimidine-3-carboxamide] fall in the same range of Ki: 0.1 to 1 µM for the first, 0.1 to 1 µM for the second.

Oc1c(Cc2ccccc2)c(C2CC2)nc2ccnn12 [Example 18, 6-Benzyl-5-cyclopropylpyrazolo[1,5-a]-pyrimidin-7-ol] and Oc1c(Cc2cc(F)cc(Cl)c2)c(C2CC2)nc2ccnn12 [Example 29, 6-[(3-Chloro-5-fluorophenyl)methyl]-5-cyclopropylpyrazolo[1,5-a]pyrimidin-7-ol] cannot be ordered by Ki: less than 0.01 µM for the first, less than 0.01 µM for the second.

First: CC(C)OC(=O)c1nc2ccnn2c(O)c1Cc1cccc(C(F)(F)F)c1 [Example 86, Propan-2-yl7-hydroxy-6-{[3-(trifluoromethyl)phenyl]methyl}pyrazolo[1,5-a]pyrimidine-5-carboxylate]
Second: O=C(O)c1nc2ccnn2c(O)c1Cc1cccc(Cl)c1 [Example 85, 6-[(3-Chlorophenyl)methyl]-7-hydroxypyrazolo[1,5-a]pyrimidine-5-carboxylic acid]
The Ki of the first is lower: 0.01 to 0.1 µM for the first, 0.1 to 1 µM for the second. The first binds more tightly here.

First: CCc1nc2ccnn2c(O)c1Oc1ccc(F)c(F)c1 [Example 62, 6-(3,4-Difluorophenoxy)-5-ethyl-pyrazolo[1,5-a]pyrimidin-7-ol]
Second: Cc1nc2ccnn2c(O)c1C(C)c1ccc(Cl)cc1 (centres unmarked) [Example 11, 6-[1-(4-Chlorophenyl)ethyl]-5-methyl-pyrazolo[1,5-a]pyrimidin-7-ol]
The Ki of the first is lower: less than 0.01 µM for the first, 0.1 to 1 µM for the second.

Compared with Cc1nc2ccnn2c(O)c1Cc1ccc(Cl)c(Br)c1 [Example 9, 6-[(3-Bromo-4-chlorophenyl)methyl]-5-methylpyrazolo[1,5-a]pyrimidin-7-ol], Oc1c(Cc2ccc(Cl)c(Cl)c2)c(C2CCCO2)nc2ccnn12 (centres unmarked) [Example 56, 6-[(3,4-Dichlorophenyl)methyl]-5-(oxolan-2-yl)pyrazolo[1,5-a]pyrimidin-7-ol] is lower in Ki: 0.01 to 0.1 µM for the first, less than 0.01 µM for the second.

COCCNC(=O)c1cnn2c(O)c(Cc3ccc(C(F)(F)F)cc3)c(C)nc12 [Example 113, 7-Hydroxy-N-(2-methoxyethyl)-5-methyl-6-{[4-(trifluoromethyl)phenyl]methyl}pyrazolo [1,5-a]pyrimidine-3-carboxamide] and CC(C)(O)c1nc2ccnn2c(O)c1Cc1cccc(F)c1 [Example 93, 6-[(3-Fluorophenyl)methyl]-5-(2-hydroxypropan-2-yl)pyrazolo[1,5-a]pyrimidin-7-ol] fall in the same range of Ki: 0.1 to 1 µM for the first, 0.1 to 1 µM for the second.

First: Oc1c(Cc2cccc(F)c2)c(-c2cnccn2)nc2cncn12 [Example 3, 3-[(3-Fluorophenyl)methyl]-2-(pyrazin-2-yl)imidazo[1,5-a]pyrimidin-4-ol]
Second: Oc1c(Cc2cc(F)c(F)c(F)c2)c(C2CC2)nc2ccnn12 [Example 26, 5-Cyclopropyl-6-[(3,4,5-trifluorophenyl)-methyl]pyrazolo[1,5-a]pyrimidin-7-ol]
The Ki of the first is higher: 0.1 to 1 µM for the first, less than 0.01 µM for the second. The second binds more tightly here.

Compound Oc1c(Cc2cc(F)c(F)c(F)c2)c(C2CCC2)nc2ccnn12 [Example 49, 5-Cyclobutyl-6-[(3,4,5-trifluorophenyl)-methyl]pyrazolo[1,5-a]pyrimidin-7-ol] has a Ki of less than 0.01 µM.

Same assay, conditions: at 2 μM

For O=C1Nc2ccccc2C2(CCN(CCc3ccc(C(F)(F)F)cc3)CC2)O1 [RS102895, reference compound], the “inhibition of CCR2 calcium response” value was “full inhibition”.

Same assay, conditions: reference antagonist; read-out: fKi

Work on O=C1Nc2ccccc2C2(CCN(CCc3ccc(C(F)(F)F)cc3)CC2)O1 [RS102895, reference compound] yielded a Ki of 0.084 µM.
